18 compounds from patent publication US20100160335A1, “PYRIDAZINONE DERIVATIVE AND PDE INHIBITOR CONTAINING THE SAME AS ACTIVE INGREDIENT” (KYORIN PHARMACEUTICAL CO., LTD., priority 2007, published 2010) can be followed below.

Experiment [1] concerns the target T1, PDE3A catalytic domain (PDE3Acat) (Homo sapiens, UniProt Q14432).
T1 construct: made in house; host or cells: Sf9 insect cells (baculovirus, Bac-to-Bac / Gateway)
The experiment is described as follows: Phosphodiesterase inhibitory activity, PDE3 ([3H]cAMP, recombinant enzyme). In kind it is biochemical. Particulars: 30° C., 20 minutes, read-out: IC50(μmol/L) PDE3.

Experiment [2] concerns histamine-induced bronchoconstriction in guinea pigs. The experiment is described as follows: Histamine-induced bronchoconstriction reaction in guinea pigs. In kind it is in vivo. Particulars: Cavia porcellus, iv, 0.5 min, guinea pig, measured 30 seconds after administration, read-out: Inhibition rate (histamine-induced bronchoconstriction); for inhibition in vivo at 0.3 mg/kg: compound 0.3 mg/kg, i.v.; for inhibition in vivo at 0.1 mg/kg: compound 0.1 mg/kg, i.v. (values in [ ]). Here is the method:
Guinea pigs were anesthetized with pentobarbital (30 mg/kg, i.p.). A cannula for intravenous administration was inserted into the left external jugular vein, a cannula for collecting blood and measuring blood pressure was inserted into the right internal carotid artery, and a tracheal cannula was inserted into the trachea. The guinea pigs were maintained on artificial respiration under the conditions of 60 times/min and 10 mL/kg/stroke. The airflow from the side branch of the tracheal cannula was measured by a bronchospasm transducer (Ugo-Basile) and recorded on a computer via Power Lab (ADInstruments Japan). The guinea pigs were immobilized with gallamine (10 mg/kg, i.v.), and histamine (12.5 μg/kg, i.v.) was administered at 10-minute intervals. After the histamine-induced bronchoconstriction became stable, the compound (0.3 mg/kg, i.v.) was administered. The histamine-induced bronchoconstriction reaction was measured 30 seconds after the compound administration to examine the bronchoconstriction inhibitory activity of the compound. The bronchoconstriction was recorded as the airflow value, and the results were represented by the ratio of the maximum value of the histamine- induced airflow 30 seconds after the administration to the maximum value of the airflow before the administration. Also, the test compounds dissolved in DMSO were used. Further, the indications were as follows: inhibition rate≧90% (+++), 90%>inhibition rate≧80% (++), and 80%>inhibition rate≧70% (+). [ ] means the results in the case of 0.1 mg/kg, i.v.

The next experiment concerns the target T2, PDE4Bcat (Homo sapiens, UniProt Q07343).
T2 construct: made in house; host or cells: Sf9 insect cells (baculovirus, Bac-to-Bac / Gateway)
In words: Phosphodiesterase inhibitory activity, PDE4 ([3H]cAMP, recombinant enzyme). In kind it is biochemical. To be noted: 30° C., 20 minutes, read-out: IC50(μmol/L) PDE4.

Where only a bound is given, the exact number is not on record here.

T2 sequence (Q07343 330-659 limits assumed): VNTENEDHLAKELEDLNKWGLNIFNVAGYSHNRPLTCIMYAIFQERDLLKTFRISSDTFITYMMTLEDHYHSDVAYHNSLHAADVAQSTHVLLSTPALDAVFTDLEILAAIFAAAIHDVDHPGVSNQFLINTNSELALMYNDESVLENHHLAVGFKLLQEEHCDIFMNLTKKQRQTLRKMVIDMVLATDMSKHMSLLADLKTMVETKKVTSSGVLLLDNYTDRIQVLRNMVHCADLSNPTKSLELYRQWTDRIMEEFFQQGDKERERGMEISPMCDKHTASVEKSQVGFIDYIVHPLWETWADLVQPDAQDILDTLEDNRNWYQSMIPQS
T1 sequence (Q14432 674-1093 limits assumed): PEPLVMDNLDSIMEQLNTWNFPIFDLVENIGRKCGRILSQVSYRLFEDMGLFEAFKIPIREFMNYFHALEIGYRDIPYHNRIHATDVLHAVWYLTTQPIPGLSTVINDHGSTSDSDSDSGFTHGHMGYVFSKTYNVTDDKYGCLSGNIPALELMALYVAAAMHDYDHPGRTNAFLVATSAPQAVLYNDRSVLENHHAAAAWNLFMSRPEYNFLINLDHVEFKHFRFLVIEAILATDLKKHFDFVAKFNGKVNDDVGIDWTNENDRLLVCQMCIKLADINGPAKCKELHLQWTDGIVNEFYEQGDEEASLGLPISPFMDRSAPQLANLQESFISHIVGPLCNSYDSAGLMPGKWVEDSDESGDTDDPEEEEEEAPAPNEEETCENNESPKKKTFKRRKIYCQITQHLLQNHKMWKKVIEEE

Regarding `COc1ccc(-c2ccc(=O)n(CCCCOc3ccc(C4=NNC(=O)CC4C)c(F)c3F)n2)c2ccc(C)nc12` (stereo not drawn) [Example 273, 2-[4-[2,3-Difluoro-4-(4-methyl-6-oxo-1,4,5,6-tetrahydropyridazin-3-yl)phenoxy]butyl]-6-(8-methoxy-2-methylquinolin-5-yl)-2H-pyridazin-3-one], the IC50 (in experiment [1]; at PDE4Bcat) was under 0.1 µmol/L throughout. The inhibition in vivo at 0.3 mg/kg in experiment [2] is at least 90%.
In the case of `COc1ccc(-c2ccc(=O)n(CCCCOc3ccc(C4=NNC(=O)C4(C)C)c(F)c3F)n2)c2nc(C(F)(F)F)[nH]c12` [Example 277, 2-[4-[2,3-Difluoro-4-(4,4-dimethyl-5-oxo-4,5-dihydro-1H-pyrazol-3-yl)phenoxy]butyl]-6-(4-methoxy-2-trifluoromethyl-1H-benzimidazol-7-yl)-2H-pyridazin-3-one], the values for the IC50 (in experiment [1]; on PDE4Bcat) were under 0.1 µmol/L and 1 to 10 µmol/L, respectively. Moreover, in experiment [2], the inhibition in vivo at 0.3 mg/kg is 80 to 90%.
The corresponding values for `COc1ccc(-c2ccc(=O)n(CCCCOc3ccc(C4=NNC(=O)CC4)c(F)c3F)n2)c2nc(C(F)(F)F)[nH]c12` [Example 278, 2-[4-[2,3-Difluoro-4-(6-oxo-1,4,5,6-tetrahydropyridazin-3-yl)phenoxy]butyl]-6-(4-methoxy-2-trifluoromethyl-1H-benzimidazol-7-yl)-2H-pyridazin-3-one] are under 0.1 µmol/L, 1 to 10 µmol/L and at least 90%.
In the case of `COc1ccc(-c2ccc(=O)n(CCCCOc3ccc(C4=NNC(=O)CC4C)c(F)c3F)n2)c2nc(C(F)(F)F)[nH]c12` (stereo not drawn) [Example 279, 2-[4-[2,3-Difluoro-4-(4-methyl-6-oxo-1,4,5,6-tetrahydropyridazin-3-yl)phenoxy]butyl]-6-(4-methoxy-2-trifluoromethyl-1H-benzimidazol-7-yl)-2H-pyridazin-3-one], the IC50 in experiment [1] was under 0.1 µmol/L; on PDE4Bcat, 0.1 to 1 µmol/L. Further, the inhibition in vivo at 0.3 mg/kg in experiment [2] is at least 90%.
The corresponding values for `CCc1ccc2c(-c3ccc(=O)n(CCCCOc4ccc(C5=NNC(=O)CC5C)cc4F)n3)ccc(OC)c2n1` (stereo not drawn) [Example 287, 6-(2-Ethyl-8-methoxyquinolin-5-yl)-2-[4-[2-fluoro-4-(4-methyl-6-oxo-1,4,5,6-tetrahydropyridazin-3-yl)phenoxy]butyl]-2H-pyridazin-3-one] are under 0.1 µmol/L, under 0.1 µmol/L and at least 90%.
As to `CCc1ccc2c(-c3ccc(=O)n(CCCCOc4ccc(C5=NNC(=O)CC5C)cc4OC)n3)ccc(OC)c2n1` (stereo not drawn) [Example 288, 6-(2-Ethyl-8-methoxyquinolin-5-yl)-2-[4-[2-methoxy-4-(4-methyl-6-oxo-1,4,5,6-tetrahydropyridazin-3-yl)phenoxy]butyl]-2H-pyridazin-3-one], the IC50 (in experiment [1]; at PDE4Bcat) was 0.1 to 1 µmol/L throughout. Further, the inhibition in vivo at 0.3 mg/kg in experiment [2] lay within 80 to 90%.
Turning to `CCc1ccc2c(-c3ccc(=O)n(CCCCOc4ccc(C5=NNC(=O)C5(C)C)c(F)c4F)n3)ccc(OC)c2n1` [Example 290, 6-(2-Ethyl-8-methoxyquinolin-5-yl)-2-[4-[2,3-difluoro-4-(4,4-dimethyl-5-oxo-4,5-dihydro-1H-pyrazol-3-yl)phenoxy]butyl]-2H-pyridazin-3-one], the IC50 (in experiment [1]; on PDE4Bcat) was under 0.1 µmol/L in each case. For the same compound, the inhibition in vivo at 0.3 mg/kg in experiment [2] was at least 90%.
Regarding `CCc1ccc2c(-c3ccc(=O)n(CCCCOc4ccc(C5=NNC(=O)CC5)cc4OC)n3)ccc(OC)c2n1` [Example 291, 6-(2-Ethyl-8-methoxyquinolin-5-yl)-2-[4-[2-methoxy-4-(6-oxo-1,4,5,6-tetrahydropyridazin-3-yl)phenoxy]butyl]-2H-pyridazin-3-one], the figures for the IC50 (in experiment [1]; on PDE4Bcat) were 1 to 10 µmol/L and 0.1 to 1 µmol/L, respectively. Further, the inhibition in vivo at 0.3 mg/kg in experiment [2] lay in the range of 70 to 80%.
Take `CCc1ccc2c(C3=NN(CCCOc4ccc(C5=NNC(=O)CC5C)cc4)C(=O)CC3C)ccc(OC)c2n1` (stereo not drawn) [Example 292]: the figures for the IC50 (in experiment [1]; at PDE4Bcat) were 1 to 10 µmol/L and 0.1 to 1 µmol/L, respectively. Moreover, the inhibition in vivo at 0.3 mg/kg in experiment [2] lay in the range of 80 to 90%.
For the compound `CCc1ccc2c(C3=NN(CCCCOc4ccc(C5=NNC(=O)CC5C)cc4OC)C(=O)CC3C)ccc(OC)c2n1` (stereo not drawn) [Example 293, 6-(2-Ethyl-8-methoxyquinolin-5-yl)-5-methyl-2-[4-[2-methoxy-4-(4-methyl-6-oxo-1,4,5,6-tetrahydropyridazin-3-yl)phenoxy]butyl]-4,5-dihydro-2H-pyridazin-3-one], the IC50 (in experiment [1]; on PDE4Bcat) was 0.1 to 1 µmol/L throughout. In addition, the inhibition in vivo at 0.1 mg/kg in experiment [2] lay in the range of 70 to 80%.
As for `CCc1ccc2c(C3=NN(CCCCOc4ccc(C5=NNC(=O)CC5C)cc4F)C(=O)CC3C)ccc(OC)c2n1` (stereo not drawn) [Example 294, 6-(2-Ethyl-8-methoxyquinolin-5-yl)-5-methyl-2-[4-[2-fluoro-4-(4-methyl-6-oxo-1,4,5,6-tetrahydropyridazin-3-yl)phenoxy]butyl]-4,5-dihydro-2H-pyridazin-3-one], the IC50 (in experiment [1]; on PDE4Bcat) was under 0.1 µmol/L each time. Moreover, the inhibition in vivo at 0.1 mg/kg in experiment [2] was at least 90%.
As to `CCc1ccc2c(C3=NN(CCCCOc4ccc(C5=NNC(=O)CC5C)c(F)c4F)C(=O)CC3C)ccc(OC)c2n1` (stereo not drawn) [Example 295, 6-(2-Ethyl-8-methoxyquinolin-5-yl)-5-methyl-2-[4-[2,3-difluoro-4-(4-methyl-6-oxo-1,4,5,6-tetrahydropyridazin-3-yl)phenoxy]butyl]-4,5-dihydro-2H-pyridazin-3-one], the IC50 (in experiment [1]; on PDE4Bcat) was under 0.1 µmol/L in each case. The inhibition in vivo at 0.1 mg/kg in experiment [2] fell in the range of 80 to 90%.
Turning to `CCc1ccc2c(C3=NN(CCCCOc4ccc(C5=NNC(=O)CC5)cc4)C(=O)CC3C)ccc(OC)c2n1` (stereo not drawn) [Example 296, 6-(2-Ethyl-8-methoxyquinolin-5-yl)-5-methyl-2-[4-[4-(6-oxo-1,4,5,6-tetrahydropyridazin-3-yl)phenoxy]butyl]-4,5-dihydro-2H-pyridazin-3-one], the IC50 was 1 to 10 µmol/L in experiment [1] and under 0.1 µmol/L on PDE4Bcat. In addition, the inhibition in vivo at 0.1 mg/kg in experiment [2] fell in the range of 80 to 90%.
With `CCc1ccc2c(C3=NN(CCCCOc4ccc(C5=NNC(=O)CC5)cc4OC)C(=O)CC3C)ccc(OC)c2n1` (stereo not drawn) [Example 297, 6-(2-Ethyl-8-methoxyquinolin-5-yl)-5-methyl-2-[4-[2-methoxy-4-(6-oxo-1,4,5,6-tetrahydropyridazin-3-yl)phenoxy]butyl]-4,5-dihydro-2H-pyridazin-3-one], the IC50 in experiment [1] fell in the range of 1 to 10 µmol/L; on PDE4Bcat, 0.1 to 1 µmol/L. In addition, the inhibition in vivo at 0.3 mg/kg in experiment [2] was at least 90%.
With `CCc1ccc2c(C3=NN(CCCCOc4ccc(C5=NNC(=O)CC5)cc4F)C(=O)CC3C)ccc(OC)c2n1` (stereo not drawn) [Example 298, 6-(2-Ethyl-8-methoxyquinolin-5-yl)-5-methyl-2-[4-[2-fluoro-4-(6-oxo-1,4,5,6-tetrahydropyridazin-3-yl)phenoxy]butyl]-4,5-dihydro-2H-pyridazin-3-one], the IC50 (in experiment [1]; at PDE4Bcat) was under 0.1 µmol/L throughout. The inhibition in vivo at 0.1 mg/kg in experiment [2] is at least 90%.
Turning to `CCc1ccc2c(C3=NN(CCCCOc4ccc(C5=NNC(=O)C5(C)C)cc4)C(=O)CC3C)ccc(OC)c2n1` (stereo not drawn) [Example 300, 6-(2-Ethyl-8-methoxyquinolin-5-yl)-5-methyl-2-[4-[4-(4,4-dimethyl-5-oxo-4,5-dihydro-1H-pyrazol-3-yl)phenoxy]butyl]-4,5-dihydro-2H-pyridazin-3-one], the IC50 in experiment [1] is 1 to 10 µmol/L; on PDE4Bcat, under 0.1 µmol/L. Also, the inhibition in vivo at 0.3 mg/kg in experiment [2] lay within 70 to 80%.
On to `CCc1ccc2c(C3=NN(CCCCOc4ccc(C5=NNC(=O)C5(C)C)cc4OC)C(=O)CC3C)ccc(OC)c2n1` (stereo not drawn) [Example 301, 6-(2-Ethyl-8-methoxyquinolin-5-yl)-5-methyl-2-[4-[2-methoxy-4-(4,4-dimethyl-5-oxo-4,5-dihydro-1H-pyrazol-3-yl)phenoxy]butyl]-4,5-dihydro-2H-pyridazin-3-one], for which the results for the IC50 (in experiment [1]; on PDE4Bcat) were at least 10 µmol/L and 0.1 to 1 µmol/L, respectively. The inhibition in vivo at 0.3 mg/kg in experiment [2] lay within 80 to 90%.
`CCc1ccc2c(C3=NN(CCCCOc4ccc(C5=NNC(=O)C5(C)C)c(F)c4F)C(=O)CC3C)ccc(OC)c2n1` (stereo not drawn) [Example 303, 6-(2-Ethyl-8-methoxyquinolin-5-yl)-5-methyl-2-[4-[2,3-difluoro-4-(4,4-dimethyl-5-oxo-4,5-dihydro-1H-pyrazol-3-yl)phenoxy]butyl]-4,5-dihydro-2H-pyridazin-3-one]: the figures for the IC50 (in experiment [1]; on PDE4Bcat) were 0.1 to 1 µmol/L and under 0.1 µmol/L, respectively. Also, the inhibition in vivo at 0.3 mg/kg in experiment [2] was in the range of 80 to 90%.
